# Publication PMC10443802, “Targeting a xenobiotic transporter to ameliorate vincristine-induced sensory neuropathy” (JCI Insight, 2023)
# Values joined by “and” are separate entries in the source; they are usually repeats but may differ in a detail not shown here. Equal entries are not always repeated.
# Key:
# hOATP1B1 = biological target: T1, hOATP1B1 (Homo sapiens, UniProt Q9Y6L6); test: Inhibition of vincristine uptake in HEK293 cells overexpressing hOATP1B1; settings: inhibitor 15 min pre-treatment
# T1 sequence (Q9Y6L6 1-691): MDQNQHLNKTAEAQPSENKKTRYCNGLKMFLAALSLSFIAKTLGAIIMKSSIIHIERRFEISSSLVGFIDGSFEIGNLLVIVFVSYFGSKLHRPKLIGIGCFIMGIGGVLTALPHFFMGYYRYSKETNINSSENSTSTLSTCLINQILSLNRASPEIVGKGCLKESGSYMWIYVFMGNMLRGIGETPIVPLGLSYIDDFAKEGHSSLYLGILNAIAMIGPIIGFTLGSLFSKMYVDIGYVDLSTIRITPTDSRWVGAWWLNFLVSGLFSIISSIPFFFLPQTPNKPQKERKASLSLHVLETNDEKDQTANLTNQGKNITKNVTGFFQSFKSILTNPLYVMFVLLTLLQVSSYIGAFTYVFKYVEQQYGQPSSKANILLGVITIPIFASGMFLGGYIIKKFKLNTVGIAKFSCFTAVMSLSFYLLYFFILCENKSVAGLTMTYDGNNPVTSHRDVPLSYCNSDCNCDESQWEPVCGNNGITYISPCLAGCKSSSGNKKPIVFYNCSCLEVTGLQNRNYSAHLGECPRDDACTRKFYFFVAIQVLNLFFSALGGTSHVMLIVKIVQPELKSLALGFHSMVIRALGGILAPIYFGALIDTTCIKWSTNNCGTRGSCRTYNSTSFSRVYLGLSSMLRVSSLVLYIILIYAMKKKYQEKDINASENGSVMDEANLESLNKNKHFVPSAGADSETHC
# hOATP1B3 = biological target: T2, hOATP1B3 (Homo sapiens, UniProt Q9NPD5); test: Inhibition of EβG uptake in HEK293 cells overexpressing hOATP1B3; settings: HEK293 hOATP1B3; inhibitor 10 μM, 15-min pre-incubation
# T2 sequence (Q9NPD5 1-702): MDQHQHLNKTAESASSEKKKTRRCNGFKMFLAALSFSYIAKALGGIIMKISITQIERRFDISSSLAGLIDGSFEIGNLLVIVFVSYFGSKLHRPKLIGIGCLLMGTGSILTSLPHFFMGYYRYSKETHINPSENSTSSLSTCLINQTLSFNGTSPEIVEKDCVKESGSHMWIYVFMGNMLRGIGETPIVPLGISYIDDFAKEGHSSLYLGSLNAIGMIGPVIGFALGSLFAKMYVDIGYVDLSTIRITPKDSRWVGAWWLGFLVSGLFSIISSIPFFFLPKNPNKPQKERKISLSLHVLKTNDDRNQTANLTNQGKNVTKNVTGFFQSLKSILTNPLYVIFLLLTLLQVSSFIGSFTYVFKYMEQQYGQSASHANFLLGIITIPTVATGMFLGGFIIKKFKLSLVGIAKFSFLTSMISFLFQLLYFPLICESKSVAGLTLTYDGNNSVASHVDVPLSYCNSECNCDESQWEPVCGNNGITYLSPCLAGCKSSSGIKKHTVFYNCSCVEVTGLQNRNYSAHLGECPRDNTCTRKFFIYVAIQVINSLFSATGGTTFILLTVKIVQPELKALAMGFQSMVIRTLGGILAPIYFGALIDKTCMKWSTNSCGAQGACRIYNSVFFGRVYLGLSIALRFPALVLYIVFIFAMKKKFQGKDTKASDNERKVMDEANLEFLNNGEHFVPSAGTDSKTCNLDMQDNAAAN
# P388D1 = settings: vincristine 1 μM, 30 min, nilotinib 10 μM
# Source text: (A) Gene expression of the OATP1B2 gene in L1210 and P388D1 murine leukemia cells
# normalized to total protein levels. All data presented represent the mean (bars) ± SEM (error bars).
# [1] = conventional chronic regimen; cited from earlier work
# hOATP5A1 = hOATP5A1 (Homo sapiens, UniProt Q9H2Y9); test: Vincristine uptake screen, HeLa cells overexpressing hOATP5A1; assay type: in vitro ADME
# Chain of hOATP5A1 (Q9H2Y9 whole entry): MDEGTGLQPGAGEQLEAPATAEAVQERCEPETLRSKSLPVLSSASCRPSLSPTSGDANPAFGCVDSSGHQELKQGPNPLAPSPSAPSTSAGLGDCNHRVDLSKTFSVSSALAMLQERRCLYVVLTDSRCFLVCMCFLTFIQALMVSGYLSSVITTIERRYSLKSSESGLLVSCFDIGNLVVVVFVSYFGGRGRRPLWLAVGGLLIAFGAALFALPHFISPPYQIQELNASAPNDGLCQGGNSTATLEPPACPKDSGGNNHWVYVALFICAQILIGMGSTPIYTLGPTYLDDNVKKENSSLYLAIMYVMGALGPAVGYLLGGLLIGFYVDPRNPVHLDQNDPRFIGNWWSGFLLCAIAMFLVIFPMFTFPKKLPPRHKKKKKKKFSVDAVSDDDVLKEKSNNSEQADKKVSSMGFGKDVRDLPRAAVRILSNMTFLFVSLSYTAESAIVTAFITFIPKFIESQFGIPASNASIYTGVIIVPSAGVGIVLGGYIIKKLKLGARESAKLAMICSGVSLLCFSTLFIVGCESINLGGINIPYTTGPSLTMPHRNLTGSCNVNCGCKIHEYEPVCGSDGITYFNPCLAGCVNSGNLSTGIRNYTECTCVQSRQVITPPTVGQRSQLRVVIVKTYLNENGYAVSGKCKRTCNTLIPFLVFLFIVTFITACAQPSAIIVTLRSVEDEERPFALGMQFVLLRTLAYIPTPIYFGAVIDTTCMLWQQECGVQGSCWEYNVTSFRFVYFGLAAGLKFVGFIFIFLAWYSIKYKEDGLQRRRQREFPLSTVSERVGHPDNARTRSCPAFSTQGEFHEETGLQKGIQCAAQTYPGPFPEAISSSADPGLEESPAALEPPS
# Procedure: (§1) Relative uptake is expressed as percentage change compared with empty vector controls (n = 4–14 per group). […] Human OATP1B1 and OATP1B3 transporter–overexpressed cells were used as positive controls; empty vector controls were used as the negative control. […] Mechanical allodynia (C), thermal hyperalgesia (D), and sciatic nerve maximal action potential amplitudes (E) are expressed as percentage change relative to baseline values (n = 6–8 per group). Statistical analysis was performed using a 2-way ANOVA with Bonferroni’s post hoc test. **P < 0.01, ***P < 0.001, ****P < 0.0001, compared with baseline values. […] Data are shown as mean ± SEM. […]
# (§2) transfected with transporters of interest, including hOAT1, hOAT3, hOAT4, hOATP1A2, hOATP3A1, hOATP4A1, hOATP5A1, hOATP1C1, hOATP1B1, hOATP1B3, hOATP2B1, hOCT1, hOCT2, hOCTN1, hOCTN2, hASBT, hNTCP, hNPT1, hMATE1, hOSTα/β, hPEPT1, hPEPT2, rOatp1a1, rOatp1a4, rOatp1a5, rOatp1b2, rNtcp, rAsbt, rOat1, and rOct1. Cells were transfected with expression plasmid or vector control lacking any insert using Lipofectin reagent (Invitrogen). Sixteen hours thereafter, cells were washed with transport media (OPTIMEM, Invitrogen) and treated with radiolabeled drug. […] The cellular radioactivity was quantified by liquid scintillation counting as described above. […]
# hOCTN1 = hOCTN1 (Homo sapiens, UniProt Q9H015); test: Vincristine uptake screen, HeLa cells overexpressing hOCTN1; assay type: in vitro ADME
# Chain of hOCTN1 (Q9H015 whole entry): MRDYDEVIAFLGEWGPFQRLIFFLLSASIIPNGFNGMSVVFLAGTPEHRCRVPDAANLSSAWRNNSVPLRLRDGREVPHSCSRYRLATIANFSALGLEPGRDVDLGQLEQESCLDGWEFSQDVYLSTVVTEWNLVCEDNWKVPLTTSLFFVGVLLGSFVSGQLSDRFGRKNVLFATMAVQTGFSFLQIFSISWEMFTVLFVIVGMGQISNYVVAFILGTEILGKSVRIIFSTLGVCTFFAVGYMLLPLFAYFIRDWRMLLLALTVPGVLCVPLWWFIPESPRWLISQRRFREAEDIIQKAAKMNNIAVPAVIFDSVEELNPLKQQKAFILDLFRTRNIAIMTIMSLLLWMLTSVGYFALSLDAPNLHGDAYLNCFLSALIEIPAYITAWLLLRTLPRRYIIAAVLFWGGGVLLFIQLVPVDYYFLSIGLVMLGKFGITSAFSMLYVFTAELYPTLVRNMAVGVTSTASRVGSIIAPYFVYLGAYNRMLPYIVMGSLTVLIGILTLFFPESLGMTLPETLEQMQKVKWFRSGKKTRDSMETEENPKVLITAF
# Procedure: as §1, §2
# OATP1B3 protein variants = test: Vincristine transport by OATP1B3 single-nucleotide variants; assay type: in vitro ADME, human; settings: single-nucleotide substitutions
# Procedure: Figure S2. […] (A) Single […]
# nucleotide polymorphisms (SNPs) activity percentage of OATP1B3 over-expressed cell after treated […]
# Statistical analysis was performed using one-way ANOVA with Dunnett’s […]
# (B) Schematic overview of […]
# week (cumulative dose of 4 mg/kg). Von-Frey tests were performed on day -1, 9, 16, 18, and 23. Thermal hyperalgesia (Hargreaves test) and nerve conduction studies of the sciatic and caudal nerve were measured on days -1 and 23. Tissue samples for morphologic evaluation were obtained on day 24. (C) […]
# and OATP1B2- deficient groups.
# Normalized mechanical allodynia (E) was expressed as a percentage change relative to baseline values (n = 6-8 per group). Statistical
structure (smiles),measurement,setting,value
"Cc1cn(-c2cc(NC(=O)c3ccc(C)c(Nc4nccc(-c5cccnc5)n4)c3)cc(C(F)(F)F)c2)cn1 [Nilotinib, nilotinib]",Vincristine uptake (% of vehicle),hOATP1B1,101.303 % of vehicle and 90.7094 % of vehicle and 62.8074 % of vehicle and 106.906 % of vehicle and 107.581 % of vehicle and 108.402 % of vehicle
same,EβG uptake (% of vehicle),hOATP1B3,3.038 % of vehicle and 2.924 % of vehicle and 2.718 % of vehicle
same,Influence on uptake of vincristine,P388D1,did not influence the uptake of vincristine
same,Median time from start of therapy to onset of QT events,[1],> 14 months
same,Range of time from start of therapy to onset of QT events,[1],2–68 months
"CC[C@]1(O)C[C@H]2CN(CCc3c([nH]c4ccccc34)[C@@](C(=O)OC)(c3cc4c(cc3OC)N(C=O)[C@H]3[C@@](O)(C(=O)OC)[C@H](OC(C)=O)[C@]5(CC)C=CCN6CC[C@]43[C@@H]65)C2)C1 [Vincristine, vincristine]",Vincristine uptake (% of vector control),hOATP5A1,109.00 % of vector control and 94.00 % of vector control and 90.00 % of vector control and 76.00 % of vector control and 77.00 % of vector control and 86.00 % of vector control and 80.00 % of vector control and 85.00 % of vector control
same,Vincristine uptake (% of vector control),hOCTN1,169.00 % of vector control and 132.00 % of vector control and 109.00 % of vector control and 131.00 % of vector control and 135.00 % of vector control and 167.00 % of vector control and 158.00 % of vector control
same,Transport by OATP1B3 protein variants,OATP1B3 protein variants,impaired ability to transport vincristine
